Assay results from ChEMBL document CHEMBL1201862, “PubChem BioAssay data set” (2004).
Activity calls are given as the source filed them.

How the values were obtained:
[1] = alpha-synuclein stem-loop luciferase translation blockers – H4 neuroglioma cells, luminescence, confirmation (AID 1988); assay type: functional, cell-based
[2] = Luminescence Cell-Based Dose Response HTS to Identify Inhibitors of 5'UTR Stem-Loop Driven Prion Protein mRNA Translation in H4 Neuroglioblastoma Cells. [Related pubchem assays: 1827 (Project Summary), 1813 (Primary HTS)]; assay type: functional
[3] = biological target: T1, DNA repair protein RAD52 homolog (Homo sapiens, UniProt P43351); assay type: functional, biochemical
T1 sequence (P43351 whole entry): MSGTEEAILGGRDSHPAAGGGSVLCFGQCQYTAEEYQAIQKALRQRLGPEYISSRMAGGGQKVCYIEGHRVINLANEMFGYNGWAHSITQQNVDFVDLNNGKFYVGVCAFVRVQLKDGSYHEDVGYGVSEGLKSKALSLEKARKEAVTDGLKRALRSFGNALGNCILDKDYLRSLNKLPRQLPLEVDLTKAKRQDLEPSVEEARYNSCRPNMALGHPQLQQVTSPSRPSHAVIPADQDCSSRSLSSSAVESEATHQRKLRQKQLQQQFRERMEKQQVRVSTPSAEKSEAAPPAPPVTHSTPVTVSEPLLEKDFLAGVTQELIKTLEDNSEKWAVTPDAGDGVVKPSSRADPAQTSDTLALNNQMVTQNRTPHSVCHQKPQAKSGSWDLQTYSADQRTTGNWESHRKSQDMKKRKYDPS

[4] = luciferase reporter signal suppression in cells – H4 neuroglioma cells, luminescence, dose response (AID 1990); assay type: functional, cell-based
cells [5] = assay type: functional, cell-based
[6] = biological target: T2, Rac GTPase-activating protein 1 (Homo sapiens, UniProt Q9H0H5); assay: blockers of MgcRacGAP-driven Rac1 GTP hydrolysis – biochemical, ADP Hunter fluorescence, primary and confirmatory, confirmation (AID 624330); assay type: functional
T2 sequence (Q9H0H5 whole entry): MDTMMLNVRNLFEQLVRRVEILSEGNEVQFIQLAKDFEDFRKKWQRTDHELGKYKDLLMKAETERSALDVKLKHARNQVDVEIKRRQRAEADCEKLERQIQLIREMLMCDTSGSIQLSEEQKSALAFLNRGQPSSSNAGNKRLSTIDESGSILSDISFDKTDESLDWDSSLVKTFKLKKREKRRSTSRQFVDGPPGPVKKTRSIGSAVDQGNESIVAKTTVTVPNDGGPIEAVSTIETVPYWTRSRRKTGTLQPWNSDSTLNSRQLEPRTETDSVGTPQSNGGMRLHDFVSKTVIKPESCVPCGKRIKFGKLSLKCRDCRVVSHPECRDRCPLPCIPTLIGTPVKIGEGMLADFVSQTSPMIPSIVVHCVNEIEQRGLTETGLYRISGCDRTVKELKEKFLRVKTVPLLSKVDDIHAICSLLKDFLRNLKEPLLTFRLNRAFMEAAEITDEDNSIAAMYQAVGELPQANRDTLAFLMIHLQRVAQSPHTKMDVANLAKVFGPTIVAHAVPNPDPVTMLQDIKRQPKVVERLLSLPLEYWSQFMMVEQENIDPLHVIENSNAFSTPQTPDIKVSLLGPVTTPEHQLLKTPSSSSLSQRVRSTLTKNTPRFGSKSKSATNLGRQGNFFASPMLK

cells [7] = assay type: functional, cell-based; remark: listed apart in the source
[8] = Dd2 malaria parasite growth inhibition potency – SYBR Green, dry powder samples, dose response (AID 1159566); assay type: functional, cell-based;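 further: potency for growth inhibition with lower SYBR green DNA signal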
[9] = toxicity to human HepG2 hepatoma cells – cell-based, plate reader, dry powder samples, cytotoxicity control, dose response (AID 1159569); assay type: functional;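 further: inhibitor potency with signal falling toward the positive control level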
[10] = growth inhibition of PfATP4-mutant resistant parasites – NITD609-resistant line, SYBR Green, dry powder, dose response (AID 1159571); assay type: functional, cell-based;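 further: parasites synchronized at ring stage by sorbitol before testing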
[11] = growth inhibition of yeast DHODH-expressing 3D7 parasites – SYBR Green, dry powder samples, dose response (AID 1159570); assay type: functional, cell-based;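 further: parasite growth measured after 72 hours of compound exposure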
[12] = P. falciparum Dd2 growth inhibitors, dose response, SYBR Green, cherry-picked samples (AID 1159567); assay type: functional, cell-based
[13] = toxicity to human hepatoma HepG2 cells – cell-based, cherry-picked samples, cytotoxicity control, dose response (AID 1159577); assay type: functional

| SMILES | AC50 [8] | AC50 [9] | AC50 [10] | AC50 [11] | AC50 [12] | further results |
| --- | --- | --- | --- | --- | --- | --- |
| CC(=O)OCCc1c2ccccc2c(CCCN(C)C)c2ccccc12 | – | – | – | – | – | EC50 [1]: > 120 µM (not active); EC50 [2]: > 120 µM (not active); AC50 [3]: 11.2 µM (active); EC50 [4]: > 120 µM (not active) |
| C[C@H]1CN([C@@H](C)CO)C(=O)CCCn2nncc2CO[C@@H]1CN(C)C(=O)Nc1ccc(N2CCN(C)CC2)cc1 | – | – | – | – | – | AC50 [3]: 28.2 µM (active) |
| CCOc1cc(/C=N/NC(=O)c2c(-c3ccccc3)noc2C)ccc1O | – | – | – | – | – | EC50 (cells [5]): > 350 µM (not active); IC50 [6]: 55.5 µM (active); EC50 (cells [7]): > 350 µM (not active) |
| C/C(=N\NC(=O)CN1CCCCC1)c1ccccc1O | – | – | – | – | – | EC50 (cells [5]): 29.7 µM (active); EC50 (cells [7]): > 350 µM (not active) |
| COc1ccccc1CN1CC2(C1)[C@H](c1ccccc1)[C@@H](CO)N2Cc1ccccc1 | 0.477 µM (active) | 24.9 µM (active) | 0.656 µM (active) | 0.765 µM (active) | – | – |
| COc1cccc(S(=O)(=O)N2CCC3(CC2)CN[C@H](CO)c2[nH]c4cc(OC)ccc4c23)c1 | 2.53 µM (active) | 33.2 µM (active) | 2.52 µM (active) | 4.68 µM (active) | 2.6 µM (active) | – |
| N#C[C@H]1[C@@H](c2ccc(C#Cc3ccccc3F)cc2)[C@@H](CO)N1C(=O)C1CCCC1 | 1.18 µM (active) | 54.2 µM (active) | 1.88 µM (active) | 1.69 µM (active) | 1.84 µM (active) | AC50 [13]: > 39 µM (inactive) |
| OC[C@@H]1[C@H](c2ccc(-c3ccccc3)cc2)[C@H]2CN(CCC(F)(F)F)CCCCN12 | 0.623 µM (active) | 18 µM (active) | 1.29 µM (active) | 1.15 µM (active) | 2.13 µM (active) | AC50 [13]: 21.7 µM (active) |
